Laboratory results from US20250147039A1, “Compounds for complexation of rare earth elements and/or s-, p-, d- block metals, their coordination compounds, peptide conjugates, method of their preparation and use thereof” (USTAV ORGANICKE CHEMIE A BIOCHEMIE AV CR V.V.I., priority 2021, published 2025).

Legend:
[1] = Formation of 1,5-cz-[M(Lig)] from Lig and M^III ions (metal dependent click-zip) (Charts 4, 5); type: physicochemical; settings: for conversion to 1,5-cz-[M(Lig)], Bi^III: 4% DMSO in MOPS/NaOH buffer pH 7.0, TD728 in 50% i-PrOH; for conversion to 1,5-cz-[M(Lig)], Ga^III / conversion to 1,5-cz-[M(Lig)], In^III / conversion to 1,5-cz-[M(Lig)], Sc^III / conversion to 1,5-cz-[M(Lig)], Y^III: MOPS/NaOH buffer pH 7.0; for conversion to 1,5-cz-[M(Lig)], Sc^III / conversion to 1,5-cz-[M(Lig)], Y^III: TD728, TD827 in 50% i-PrOH; for conversion to 1,5-cz-[M(Lig)], Y^III: TD714 sum of two diastereoisomers
[2] = Formation of 1,5-cz-[M(Lig)] from Lig and M^II ions (metal dependent click-zip) (Charts 6, 7); type: physicochemical; settings: MOPS/NaOH buffer pH 7.0; for conversion to 1,5-cz-[M(Lig)], Ca^II / conversion to 1,5-cz-[M(Lig)], Cd^II / conversion to 1,5-cz-[M(Lig)], Pb^II: TD728 in 50% i-PrOH
[3] = Alkali metal dependent formation of 1,5-cz-Lig and 1,4-cz-Lig isomers from Lig at pH 10.2 (Chart 14); type: physicochemical; settings: Borate/(M^I)2CO3 buffer pH 10.2
[4] = Formation of 1,5-cz-[Lu(Lig)] from Lig (metal dependent click-zip) with various absolute concentrations (Chart 12); type: physicochemical
[5] = Formation of 1,5-cz-[Ln(Lig)] from Lig and Ln^III ions (metal dependent click-zip), MOPS/NaOH buffer pH 7.0, analytical HPLC (Charts 1, 2); settings: MOPS/NaOH buffer pH 7.0
[6] = B: 1 day at 80° C., visible analyte free precipitate

- conversion to 1,5-cz-[M(Lig)], Bi^III ([1]; 1 week at 80° C.): 73%
- conversion to 1,5-cz-[M(Lig)], Ga^III ([1]; 1 week at 80° C.): 0%
- conversion to 1,5-cz-[M(Lig)], In^III ([1]; 1 week at 80° C.): 8%
- conversion to 1,5-cz-[M(Lig)], Sc^III ([1]; 1 week at 80° C.): 35%
- conversion to 1,5-cz-[M(Lig)], Y^III ([1]; 1 week at 80° C.): 93%
- conversion to 1,5-cz-[M(Lig)], Bi^III ([1]; 1 hour at 80° C.): 29%
- conversion to 1,5-cz-[M(Lig)], Ga^III ([1]; 1 hour at 80° C.): 0%
- conversion to 1,5-cz-[M(Lig)], In^III ([1]; 1 hour at 80° C.): 0%
- conversion to 1,5-cz-[M(Lig)], Sc^III ([1]; 1 hour at 80° C.): 7%
- conversion to 1,5-cz-[M(Lig)], Y^III ([1]; 1 hour at 80° C.): 20%
- conversion to 1,5-cz-[M(Lig)], Ba^II ([2]; 1 week at 80° C.): 0%
- conversion to 1,5-cz-[M(Lig)], Ni^II ([2]; 1 week at 80° C.): 0%
- conversion to 1,5-cz-[M(Lig)], Sr^II ([2]; 1 week at 80° C.): 0%
- conversion to 1,5-cz-[M(Lig)], Zn^II ([2]; 1 week at 80° C.): 0%
- conversion to 1,5-cz-[M(Lig)], Ca^II ([2]; 1 week at 80° C.): 87%
- conversion to 1,5-cz-[M(Lig)], Cd^II ([2]; 1 week at 80° C.): 86%
- conversion to 1,5-cz-[M(Lig)], Pb^II ([2]; 1 week at 80° C.): 54%
- conversion to 1,5-cz-[M(Lig)], Ba^II ([2]; 1 hour at 80° C.): 0%
- conversion to 1,5-cz-[M(Lig)], Ni^II ([2]; 1 hour at 80° C.): 0%
- conversion to 1,5-cz-[M(Lig)], Sr^II ([2]; 1 hour at 80° C.): 0%
- conversion to 1,5-cz-[M(Lig)], Zn^II ([2]; 1 hour at 80° C.): 0%
- conversion to 1,5-cz-[M(Lig)], Ca^II ([2]; 1 hour at 80° C.): 16%
- conversion to 1,5-cz-[M(Lig)], Pb^II ([2]; 1 hour at 80° C.): 2%
- conversion to 1,5-cz-[M(Lig)], Cd^II ([2]; 1 hour at 80° C., TD714 sum of two diastereoisomers): 64%
- conversion to 1,4-cz-Lig isomer, Cs^I ([3]; A: 1 hour at 80° C.): 2%
- conversion to 1,4-cz-Lig isomer, K^I ([3]; A: 1 hour at 80° C.): 2%
- conversion to 1,4-cz-Lig isomer, Li^I ([3]; A: 1 hour at 80° C.): 0%
- conversion to 1,4-cz-Lig isomer, Na^I ([3]; A: 1 hour at 80° C.): 1%
- conversion to 1,4-cz-Lig isomer, Rb^I ([3]; A: 1 hour at 80° C.): 2%
- conversion to 1,5-cz-Lig isomer, Cs^I ([3]; A: 1 hour at 80° C.): 0%
- conversion to 1,5-cz-Lig isomer, K^I ([3]; A: 1 hour at 80° C.): 1%
- conversion to 1,5-cz-Lig isomer, Li^I ([3]; A: 1 hour at 80° C.): 0%
- conversion to 1,5-cz-Lig isomer, Na^I ([3]; A: 1 hour at 80° C.): 15%
- conversion to 1,5-cz-Lig isomer, Rb^I ([3]; A: 1 hour at 80° C.): 0%
- conversion to 1,4-cz-Lig isomer, Cs^I ([3]; B: 1 day at 80° C.): 39%
- conversion to 1,4-cz-Lig isomer, K^I ([3]; B: 1 day at 80° C.): 40%
- conversion to 1,4-cz-Lig isomer, Na^I ([3]; B: 1 day at 80° C.): 1%
- conversion to 1,4-cz-Lig isomer, Rb^I ([3]; B: 1 day at 80° C.): 41%
- conversion to 1,5-cz-Lig isomer, Cs^I ([3]; B: 1 day at 80° C.): 7%
- conversion to 1,5-cz-Lig isomer, K^I ([3]; B: 1 day at 80° C.): 10%
- conversion to 1,5-cz-Lig isomer, Na^I ([3]; B: 1 day at 80° C.): 85%
- conversion to 1,5-cz-Lig isomer, Rb^I ([3]; B: 1 day at 80° C.): 6%
- conversion to 1,4-cz-Lig isomer, Li^I [3, 6]: 2%
- conversion to 1,5-cz-Lig isomer, Li^I [3, 6]: 9%
- conversion to 1,5-cz-[Lu(Lig)] ([4]; A: 1 hour at 80° C., Lig 5.0 × 10^0 mM, Lu^III 7.5 × 10^0 mM): 74%
- conversion to 1,5-cz-[Lu(Lig)] ([4]; A: 1 hour at 80° C., Lig 5.0 × 10^1 mM, Lu^III 7.5 × 10^1 mM): 71%
- conversion to 1,5-cz-[Lu(Lig)] ([4]; A: 1 hour at 80° C., Lig 5.0 × 10^−1 mM, Lu^III 7.5 × 10^−1 mM): 70%
- conversion to 1,5-cz-[Lu(Lig)] ([4]; A: 1 hour at 80° C., Lig 5.0 × 10^−2 mM, Lu^III 7.5 × 10^−2 mM): 60%
- conversion to 1,5-cz-[Lu(Lig)] ([4]; A: 1 hour at 80° C., Lig 5.0 × 10^−3 mM, Lu^III 7.5 × 10^−3 mM): 15%
- conversion to 1,5-cz-[Lu(Lig)] ([4]; B: 1 day at 80° C., Lig 5.0 × 10^0 mM, Lu^III 7.5 × 10^0 mM): 96%
- conversion to 1,5-cz-[Lu(Lig)] ([4]; B: 1 day at 80° C., Lig 5.0 × 10^1 mM, Lu^III 7.5 × 10^1 mM): 84%
- conversion to 1,5-cz-[Lu(Lig)] ([4]; B: 1 day at 80° C., Lig 5.0 × 10^−1 mM, Lu^III 7.5 × 10^−1 mM): 97%
- conversion to 1,5-cz-[Lu(Lig)] ([4]; B: 1 day at 80° C., Lig 5.0 × 10^−2 mM, Lu^III 7.5 × 10^−2 mM): 96%
- conversion to 1,5-cz-[Lu(Lig)] ([4]; B: 1 day at 80° C., Lig 5.0 × 10^−3 mM, Lu^III 7.5 × 10^−3 mM): 59%
- conversion to 1,5-cz-[Lu(Lig)] ([4]; C: 1 week at 80° C., Lig 5.0 × 10^0 mM, Lu^III 7.5 × 10^0 mM): 96%
- conversion to 1,5-cz-[Lu(Lig)] ([4]; C: 1 week at 80° C., Lig 5.0 × 10^1 mM, Lu^III 7.5 × 10^1 mM): 86%
- conversion to 1,5-cz-[Lu(Lig)] ([4]; C: 1 week at 80° C., Lig 5.0 × 10^−1 mM, Lu^III 7.5 × 10^−1 mM): 97%
- conversion to 1,5-cz-[Lu(Lig)] ([4]; C: 1 week at 80° C., Lig 5.0 × 10^−2 mM, Lu^III 7.5 × 10^−2 mM): 96%
- conversion to 1,5-cz-[Lu(Lig)] ([4]; C: 1 week at 80° C., Lig 5.0 × 10^−3 mM, Lu^III 7.5 × 10^−3 mM): 57%
- conversion to 1,5-cz-[Ln(Lig)], Ce^III ([5]; after 1 week at 80° C.): 50%
- conversion to 1,5-cz-[Ln(Lig)], Ce^III ([5]; after 1 hour at 80° C.): 1%
- conversion to 1,5-cz-[Ln(Lig)], Dy^III ([5]; after 1 week at 80° C.): 92%
- conversion to 1,5-cz-[Ln(Lig)], Dy^III ([5]; after 1 hour at 80° C.): 13%
- conversion to 1,5-cz-[Ln(Lig)], Er^III ([5]; after 1 week at 80° C.): 95%
- conversion to 1,5-cz-[Ln(Lig)], Er^III ([5]; after 1 hour at 80° C.): 32%
- conversion to 1,5-cz-[Ln(Lig)], Eu^III ([5]; after 1 week at 80° C.): 89%
- conversion to 1,5-cz-[Ln(Lig)], Eu^III ([5]; after 1 hour at 80° C.): 4%
SMILES: C#Cc1cccc(CN2CCN(CC(=O)O)CCN(Cc3cc(-c4ccccc4)cc(CN=[N+]=[N-])n3)CCN(CC(=O)O)CC2)n1 [TD647]
